Test results reported in patent US20100069476A1, “COMPOSITIONS AND METHODS FOR REDUCTION OF CUTANEOUS PHOTOAGEING” (MITSUI NORIN CO., LTD, priority 2005, published 2010).

What was measured:
SKH-1 hairless mice = details: for prevention of UVB-induced skin damage as measured by the bi-fold thickness test: topical at optimum dosages (AA 0.5 mg/cm^2, EGCG 1 mg/cm^2), UVB 90 mJ/cm^2 two months on alternate days
Protocol: (§2) SKH-1 hairless mice were used at an age of between 6-8 weeks. The mice were UVB exposed (90 mJ/cm^2) for two months on alternate days for the present photoageing model. At the termination of the experiment, mice were sacrificed 24 hr after the last UV exposure, skin biopsies were collected for analyzing various parameters.
Ascorbic acid and EGCG (or polyphenon E) were dissolved at various concentrations in a hydrophilic cream and were topically applied on the mouse skin 25-30 min before each exposure of UVB. […] Therefore, to evaluate the anti-photoaging effects, we used this dose in all the experiments performed.
Bi-fold skin thickness of the UV exposed skin site with or without the treatment of ascorbic acid (AA) and EGCG.
Control experiments were performed to verify skin damage due to UVB exposure at the above dosage regimen. […] In the below experiments, mice were irradiated to UVB (90 mJ/cm^2) for two months on alternate days to effect photoageing of the skin. Mice were topically treated either with AA, EGCG or a combination of AA (unless indicated otherwise at 0.5 mg EGCG/cm^2 skin area) and EGCG (unless indicated otherwise at 1 mg EGCG/cm^2 skin area) before each exposure of the UVB to determine the photoprotective effect of these agents. Hydrophilic cream was used as a vehicle. UVB alone irradiated mice (control) were topically treated with vehicle only before UVB exposure.
Therefore, and based on these findings, dosages of ascorbic acid for selected experiments were maintained at about or below 0.5 mg/cm^2.
To determine if the effect was additive or synergistic, ascorbic acid and EGCG were topically used at the above determined optimum dosages.

TIMP = assay: Expression of tissue inhibitor of matrix metalloproteinase in UVB exposed skin; format: in vivo, mice; details: topical
Text: 5. Tissue inhibitor of matrix metalloproteinase (TIMP).
Most matrix proteins provide tensile strength to the skin, and are therefore thought to be associated with photoageing and/or wrinkling of skin. […] The blots were stripped and re-probed for β-actin antibody to verify equal protein loading and equal transfer of proteins from gel to membrane.

[1] = test system: MMP-2, MMP-3, MMP-7 and MMP-9; assay: UVB-induced expression of matrix metalloproteinases by western blot; format: in vivo, mice; details: EGCG about 1 mg/cm^2, ascorbic acid about 0.5 mg/cm^2, topical
Text: 4. Matrix metalloproteinases, like MMP-2, MMP-3, MMP-7 and MMP-9 which play a major role in degradation of extracellular matrix of the skin and leads to skin aging or wrinkle formation.
(§1) Hydrophilic cream was used as a vehicle.
Most matrix proteins provide tensile strength to the skin, and are therefore thought to be associated with photoageing and/or wrinkling of skin. We previously reported that chronic exposure of skin to UVB induces the up-regulation of several MMP, particularly, MMP-2, MMP-3, MMP-7 and MMP-9. […] The blots were stripped and re-probed for β-actin antibody to verify equal protein loading and equal transfer of proteins from gel to membrane.

[2] = test system: UV-induced markers of oxidative stress; assay: UV-induced markers of oxidative stress and skin appearance, UVB one month on alternate days; format: in vivo, mice
Text: In another exemplary treatment, mice were exposed to UVB (90 mJ/cm^2) for a period of one month on alternate days with or without polyphenone E in the drinking water (0.2%, w/v). Remarkably, this protocol inhibited UV-induced markers of oxidative stress, however, to a lesser extent than topical treatment.

H2O2 = assay: Intracellular release of H2O2 in skin cells after UVB (dihydrorhodamine 123), topical treatment; format: in vivo, mice; details: for effect on UVB-induced H2O2 production in cells: EGCG about 1 mg/cm^2, ascorbic acid about 0.5 mg/cm^2, topical; for H2O2 production in skin cells, control experiments without UVB: topical treatment individually
Protocol: 2. Hydrogen peroxide production as a marker of oxidative stress.
as §1
After UVB exposure, a single cell suspension from the epidermis and dermis was prepared following procedures well known in the art. H2O2 was assayed using dihydrorhodamine 123 as a fluorescent dye probe. […] Treatment with ascorbic acid and EGCG inhibited UVB-induced H2O2 production in cells.

[3] = test system: oxidation of proteins in the skin; assay: UVB-induced oxidation of proteins in the skin (protein carbonyl formation, OxyBlot western blot); format: in vivo, mice; details: EGCG about 1 mg/cm^2, ascorbic acid about 0.5 mg/cm^2, topical
Protocol: as §1
FIG. 4 depicts a western blot analysis using antibodies against carbonyl-containing proteins. Protein oxidation was determined following western blot analysis by using OxyBlot Protein Oxidation Detection kit (Intergen Company, Purchase, N.Y.).

[4] = test system: UVB-induced adverse effects in the skin; assay: Preliminary dose-dependent efficacy against UVB-induced adverse effects in the skin; format: in vivo, mice; details: topical 1 mg EGCG/cm^2 skin area, preliminary studies
Protocol: as §2
Ascorbic acid and EGCG (or polyphenon E) were dissolved at various concentrations in a hydrophilic cream and were topically applied on the mouse skin 25-30 min before each exposure of UVB. In preliminary studies, we tested the efficacy of AA and EGCG dose-dependently against UVB-induced adverse effects in the skin.

Question: For `O=C(O[C@@H]1Cc2c(O)cc(O)cc2O[C@@H]1c1cc(O)c(O)c(O)c1)c1cc(O)c(O)c(O)c1` [EGCG, epigallocatechin gallate], which “prevention of UVB-induced skin damage as measured by the bi-fold thickness test” value (SKH-1 hairless mice) is on record?
Answer: substantially less protection

Question: And the “dosage up to which photoprotection increased (bi-fold thickness test)” value (SKH-1 hairless mice; topical, little or no further beneficial effect at increasing dosages)?
Answer: about 1.0 mg/cm^2

Question: And the “expression of TIMP” value (TIMP)?
Answer: up-regulated

Question: And the “effect on UVB-induced expression of selected MMP” value [1]?
Answer: inhibited UVB-induced expression of selected MMP to at least some degree

Question: And the “chemopreventive efficacy, compared” value ([2]; UVB 90 mJ/cm^2 one month on alternate days)?
Answer: superior to polyphenone E

Question: And the “skin appearance in comparison to UV alone exposed skin sites” value ([2]; plus UV exposed mice)?
Answer: relatively better

Question: What about the “effect on UVB-induced H2O2 production in cells” value (H2O2) of the same compound?
Answer: inhibited

Question: And the “H2O2 production in skin cells, control experiments without UVB” value (H2O2)?
Answer: did not induce H2O2 production

Question: What about the “effect on UVB-induced oxidation of proteins” value [3] of the same compound?
Answer: inhibited UVB-induced oxidation of proteins to some degree

Question: And the “chemopreventive effects against UVB radiation” value [4]?
Answer: significant chemopreventive effects

Question: Which “prevention of UVB-induced skin damage as measured by the bi-fold thickness test” value (SKH-1 hairless mice) does the source give for `O=C1O[C@H]([C@@H](O)CO)C(O)=C1O` [ascorbic acid] here?
Answer: substantially less protection

Question: And the “inflammatory reaction of skin” value (SKH-1 hairless mice; topical doses substantially above 0.5 mg/cm^2 of skin)?
Answer: tended to provoke an inflammatory reaction

Question: And the “optimum dosage (protection measured by bi-fold skin thickness)” value (SKH-1 hairless mice; topical, data not shown)?
Answer: about 0.5 mg/cm^2

Question: What about the “expression of TIMP” value (TIMP) of the same compound?
Answer: up-regulated

Question: What about the “effect on UVB-induced expression of selected MMP” value [1] of the same compound?
Answer: inhibited UVB-induced expression of selected MMP to at least some degree

Question: And the “effect on UVB-induced H2O2 production in cells” value (H2O2)?
Answer: inhibited

Question: What about the “H2O2 production in skin cells, control experiments without UVB” value (H2O2) of the same compound?
Answer: did not induce H2O2 production

Question: What about the “effect on UVB-induced oxidation of proteins” value [3] of the same compound?
Answer: inhibited UVB-induced oxidation of proteins to some degree
